# Experiments:
# HT-29 = assay: Cytotoxicity against human HT-29 cells; assay type: functional; details: read-out: ED50 (the source's name)
# MCF7 = assay: Cytotoxicity against human MCF7 cells; assay type: functional; details: read-out: ED50 (the source's name)
# [1] = Toxicity against brine shrimp; assay type: organism-based; details: artemia, in vivo
# [2] = Cytotoxicity against mouse 9PS cells; assay type: functional; details: read-out: ED50 (the source's name)
# A549 = assay: Cytotoxicity against human A549 cells; assay type: functional; details: read-out: ED50 (the source's name)
compound,measurement,setting,value
CC(=O)OC[C@]12[C@H](OC(C)=O)[C@H](OC(C)=O)C3C(OC(C)=O)[C@@]14O[C@@]3(C)COC(=O)c1cccnc1[C@@H](C)[C@H](C)C(=O)OC([C@H](OC(=O)c1ccc(=O)n(C)c1)[C@@H]2OC(=O)c1ccccc1)[C@]4(C)O (stereo not given in full) [HIPPOCRATEINE],EC50,HT-29,> 10 µg/mL
same,EC50,MCF7,> 10 µg/mL
same,LC50,[1],212 µg/mL
same,EC50,[2],0.185 µg/mL
same,EC50,A549,> 10 µg/mL
